Test results from patent US11981658B2, “Substituted aminopyridine compounds as EGFR inhibitors” (YUHAN CORPORATION, priority 2021, dated 2024).
Where two headings read alike, the source gives them in different places.

Legend:
[1] = biological target: EGFR Del19/T790M/C797S (Homo sapiens, UniProt P00533, C797S/DEL746-750/T790M); assay: Biochemical EGFR kinase inhibition assay (Lance Ultra TR-FRET), triple mutant del19/T790M/C797S
In short: (§1)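 Enzyme reactions lasted 1 hour at room temperature with test compounds between 0.003 and 10 μM, followed by 10 mM EDTA quench.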

[2] = biological target: EGFR Del19/C797S (Homo sapiens, UniProt P00533, C797S/DEL746-750); assay: Biochemical EGFR kinase inhibition assay (Lance Ultra TR-FRET), double mutant del19/C797S
In short: as §1

[3] = biological target: EGFR wildtype (WT) (Homo sapiens, UniProt P00533); assay: Biochemical EGFR kinase inhibition assay (Lance Ultra TR-FRET), wildtype
EGFR wildtype (WT), sequence (P00533 25-1210): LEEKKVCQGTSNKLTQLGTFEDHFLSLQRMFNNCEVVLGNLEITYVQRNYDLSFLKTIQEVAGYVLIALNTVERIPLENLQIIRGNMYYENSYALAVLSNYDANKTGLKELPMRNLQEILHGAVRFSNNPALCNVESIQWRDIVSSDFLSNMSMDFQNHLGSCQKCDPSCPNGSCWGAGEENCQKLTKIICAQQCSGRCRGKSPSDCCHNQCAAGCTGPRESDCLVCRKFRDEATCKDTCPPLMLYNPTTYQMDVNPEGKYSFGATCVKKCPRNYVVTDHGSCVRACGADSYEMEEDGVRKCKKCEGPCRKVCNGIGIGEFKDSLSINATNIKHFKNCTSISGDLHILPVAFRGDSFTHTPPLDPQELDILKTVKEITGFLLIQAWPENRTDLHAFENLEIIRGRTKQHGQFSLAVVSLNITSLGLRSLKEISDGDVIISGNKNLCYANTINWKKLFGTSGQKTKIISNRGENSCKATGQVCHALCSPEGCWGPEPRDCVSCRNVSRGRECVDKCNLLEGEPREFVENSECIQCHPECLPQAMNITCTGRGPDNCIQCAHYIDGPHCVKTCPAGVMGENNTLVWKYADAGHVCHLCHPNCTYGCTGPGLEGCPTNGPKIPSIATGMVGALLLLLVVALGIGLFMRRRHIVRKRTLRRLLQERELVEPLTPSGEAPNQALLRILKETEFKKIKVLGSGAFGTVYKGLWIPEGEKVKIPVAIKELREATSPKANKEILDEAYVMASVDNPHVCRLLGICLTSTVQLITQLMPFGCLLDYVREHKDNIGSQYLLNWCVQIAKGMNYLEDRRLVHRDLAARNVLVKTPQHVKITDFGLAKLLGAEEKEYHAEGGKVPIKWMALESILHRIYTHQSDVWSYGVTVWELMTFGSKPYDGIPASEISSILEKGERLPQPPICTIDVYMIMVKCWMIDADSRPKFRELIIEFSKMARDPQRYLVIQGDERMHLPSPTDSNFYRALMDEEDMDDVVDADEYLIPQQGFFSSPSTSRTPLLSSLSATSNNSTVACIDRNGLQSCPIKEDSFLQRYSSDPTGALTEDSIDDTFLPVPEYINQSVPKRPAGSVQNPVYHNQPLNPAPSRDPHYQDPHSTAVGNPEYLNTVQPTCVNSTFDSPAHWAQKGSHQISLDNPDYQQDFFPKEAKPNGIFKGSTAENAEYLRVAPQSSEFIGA
In short: as §1

[4] = biological target: EGFR L858R/C797S (Homo sapiens, UniProt P00533, C797S/L858R); assay: Biochemical EGFR kinase inhibition assay (Lance Ultra TR-FRET), double mutant L858R/C797S
EGFR L858R/C797S, sequence (P00533 25-1210 C797S/L858R): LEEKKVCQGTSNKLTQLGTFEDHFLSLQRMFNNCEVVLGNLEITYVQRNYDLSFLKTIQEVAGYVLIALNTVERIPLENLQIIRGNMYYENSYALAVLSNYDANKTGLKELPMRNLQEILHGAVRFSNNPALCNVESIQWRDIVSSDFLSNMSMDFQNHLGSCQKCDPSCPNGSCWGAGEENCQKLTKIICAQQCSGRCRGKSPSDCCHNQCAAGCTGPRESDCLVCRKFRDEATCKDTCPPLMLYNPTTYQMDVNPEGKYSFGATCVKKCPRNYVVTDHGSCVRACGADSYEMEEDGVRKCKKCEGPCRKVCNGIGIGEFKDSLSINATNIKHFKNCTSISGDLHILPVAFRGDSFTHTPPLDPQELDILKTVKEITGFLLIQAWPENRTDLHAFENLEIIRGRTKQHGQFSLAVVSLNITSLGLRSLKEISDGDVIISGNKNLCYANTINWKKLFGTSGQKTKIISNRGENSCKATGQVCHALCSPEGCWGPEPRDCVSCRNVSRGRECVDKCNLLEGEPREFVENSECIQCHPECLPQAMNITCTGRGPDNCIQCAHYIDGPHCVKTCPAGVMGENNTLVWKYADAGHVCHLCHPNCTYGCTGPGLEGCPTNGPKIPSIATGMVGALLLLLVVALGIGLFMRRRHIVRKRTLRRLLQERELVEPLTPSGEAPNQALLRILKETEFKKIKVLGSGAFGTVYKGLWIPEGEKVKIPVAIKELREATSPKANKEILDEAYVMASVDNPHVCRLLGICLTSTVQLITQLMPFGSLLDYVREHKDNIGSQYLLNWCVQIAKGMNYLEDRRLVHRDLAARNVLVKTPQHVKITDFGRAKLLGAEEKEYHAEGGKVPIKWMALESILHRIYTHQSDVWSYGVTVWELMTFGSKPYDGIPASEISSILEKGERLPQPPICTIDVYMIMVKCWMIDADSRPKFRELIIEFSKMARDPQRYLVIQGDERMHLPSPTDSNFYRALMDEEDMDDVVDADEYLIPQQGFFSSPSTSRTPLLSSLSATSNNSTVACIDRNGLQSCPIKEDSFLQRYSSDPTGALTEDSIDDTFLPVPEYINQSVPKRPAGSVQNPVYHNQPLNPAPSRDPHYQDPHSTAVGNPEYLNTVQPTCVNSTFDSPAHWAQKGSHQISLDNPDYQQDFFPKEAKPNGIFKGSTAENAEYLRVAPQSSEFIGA
In short: as §1

[5] = biological target: EGFR L858R/T790M/C797S (Homo sapiens, UniProt P00533, C797S/L858R/T790M); assay: Biochemical EGFR kinase inhibition assay (Lance Ultra TR-FRET), triple mutant L858R/T790M/C797S
EGFR L858R/T790M/C797S, sequence (P00533 25-1210 T790M/C797S/L858R): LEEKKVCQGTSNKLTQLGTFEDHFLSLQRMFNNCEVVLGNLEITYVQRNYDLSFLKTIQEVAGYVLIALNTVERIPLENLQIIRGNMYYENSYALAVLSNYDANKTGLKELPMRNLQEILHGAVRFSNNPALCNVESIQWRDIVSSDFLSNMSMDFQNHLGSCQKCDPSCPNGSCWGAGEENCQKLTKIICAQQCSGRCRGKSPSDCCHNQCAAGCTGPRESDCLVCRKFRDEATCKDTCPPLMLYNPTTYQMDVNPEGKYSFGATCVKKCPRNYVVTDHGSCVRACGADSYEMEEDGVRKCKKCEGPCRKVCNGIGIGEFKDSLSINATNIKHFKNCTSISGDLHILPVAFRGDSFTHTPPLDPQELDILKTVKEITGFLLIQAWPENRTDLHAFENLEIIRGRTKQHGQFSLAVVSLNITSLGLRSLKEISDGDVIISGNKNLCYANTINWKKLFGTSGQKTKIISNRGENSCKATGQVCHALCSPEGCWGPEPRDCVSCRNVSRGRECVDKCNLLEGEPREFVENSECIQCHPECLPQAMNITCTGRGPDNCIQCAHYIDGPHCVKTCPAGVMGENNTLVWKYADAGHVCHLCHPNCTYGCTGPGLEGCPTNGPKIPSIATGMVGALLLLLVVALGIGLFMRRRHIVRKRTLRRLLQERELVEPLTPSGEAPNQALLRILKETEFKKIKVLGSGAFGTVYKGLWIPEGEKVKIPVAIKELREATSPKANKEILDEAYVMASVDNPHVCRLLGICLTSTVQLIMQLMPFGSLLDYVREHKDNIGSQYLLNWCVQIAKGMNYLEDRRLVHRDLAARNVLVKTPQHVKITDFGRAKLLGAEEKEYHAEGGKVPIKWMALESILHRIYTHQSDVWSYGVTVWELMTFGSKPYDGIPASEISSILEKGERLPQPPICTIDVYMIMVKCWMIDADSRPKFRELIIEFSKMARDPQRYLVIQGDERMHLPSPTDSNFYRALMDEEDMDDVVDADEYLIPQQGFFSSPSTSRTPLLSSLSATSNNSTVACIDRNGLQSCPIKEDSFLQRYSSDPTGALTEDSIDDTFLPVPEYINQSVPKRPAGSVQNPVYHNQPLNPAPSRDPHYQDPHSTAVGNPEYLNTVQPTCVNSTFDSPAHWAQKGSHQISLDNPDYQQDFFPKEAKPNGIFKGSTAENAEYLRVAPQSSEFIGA
In short: as §1

[6] = ATP at Km, read-out: IC50 Del19/T790M/C797S (nM), Km ATP
[7] = IC50 Del19/T790M/C797S (nM), 100 μM ATP
[8] = ATP at Km, read-out: IC50 Del19/C797S (nM), Km ATP
[9] = IC50 Del19/C797S (nM), 100 μM ATP
[10] = ATP at Km, read-out: IC50 WT (nM), Km ATP
[11] = ATP at Km, read-out: IC50 L858R/C797S (nM), Km ATP
[12] = IC50 L858R/C797S (nM), 100 μM ATP
[13] = ATP at Km, read-out: IC50 L858R/T790M/C797S (nM), Km ATP
[14] = IC50 L858R/T790M/C797S (nM), 100 μM ATP

EGFR Del19/T790M/C797S, sequence (P00533 with tags, fused parts or gaps DEL746-750/T790M/C797S): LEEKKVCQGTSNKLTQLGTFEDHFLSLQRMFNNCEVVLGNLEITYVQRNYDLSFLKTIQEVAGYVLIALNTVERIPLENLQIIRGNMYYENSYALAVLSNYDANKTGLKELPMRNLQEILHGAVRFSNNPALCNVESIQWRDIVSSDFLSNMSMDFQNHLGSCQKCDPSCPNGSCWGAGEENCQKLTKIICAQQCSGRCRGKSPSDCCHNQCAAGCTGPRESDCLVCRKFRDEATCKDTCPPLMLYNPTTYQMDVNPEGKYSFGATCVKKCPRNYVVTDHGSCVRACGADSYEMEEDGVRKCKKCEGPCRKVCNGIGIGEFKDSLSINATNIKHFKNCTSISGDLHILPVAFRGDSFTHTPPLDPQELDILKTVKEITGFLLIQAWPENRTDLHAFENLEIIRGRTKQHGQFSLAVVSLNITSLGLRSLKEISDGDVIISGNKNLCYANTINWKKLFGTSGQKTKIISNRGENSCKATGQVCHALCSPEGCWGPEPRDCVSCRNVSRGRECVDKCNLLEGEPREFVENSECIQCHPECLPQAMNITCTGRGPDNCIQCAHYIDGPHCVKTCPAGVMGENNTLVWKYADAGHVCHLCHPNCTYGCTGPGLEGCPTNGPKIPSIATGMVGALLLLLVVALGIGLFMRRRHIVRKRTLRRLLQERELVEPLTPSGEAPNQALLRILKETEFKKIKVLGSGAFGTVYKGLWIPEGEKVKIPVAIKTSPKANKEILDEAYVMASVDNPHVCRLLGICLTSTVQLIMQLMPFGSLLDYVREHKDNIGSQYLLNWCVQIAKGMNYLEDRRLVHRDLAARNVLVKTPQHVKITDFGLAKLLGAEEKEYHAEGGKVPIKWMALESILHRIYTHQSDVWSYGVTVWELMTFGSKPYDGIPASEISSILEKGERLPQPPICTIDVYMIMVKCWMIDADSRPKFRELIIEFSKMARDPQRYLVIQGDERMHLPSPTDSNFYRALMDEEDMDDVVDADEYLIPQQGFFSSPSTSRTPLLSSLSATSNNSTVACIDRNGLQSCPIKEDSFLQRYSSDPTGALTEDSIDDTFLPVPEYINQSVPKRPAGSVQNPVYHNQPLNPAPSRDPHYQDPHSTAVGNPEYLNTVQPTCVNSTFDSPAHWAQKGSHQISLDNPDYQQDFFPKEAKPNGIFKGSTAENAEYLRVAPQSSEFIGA

## CC1(CO)CCN(c2cc(Nc3ccnc(-c4cnn(S(=O)(=O)C5CC5)c4)n3)ncc2C#Cc2cnc(CN3CCOCC3)s2)CC1 [Example 192, (1-(2-((2-(1-(Cyclopropylsulfonyl)-1H-pyrazol-4-yl)pyrimidin-4-yl)amino)-5-((2-(morpholinomethyl)thiazol-5-yl)ethynyl)pyridin-4-yl)-4-methylpiperidin-4-yl)methanol]
[1]; [6]
  IC50: 1 nM
[1]; [7]
  IC50: 1.5 nM
[2]; [8]
  IC50: 1.1 nM
[2]; [9]
  IC50: 1.8 nM
[3]; [10]
  IC50: 6.1 nM
[3]; IC50 WT (nM), 100 μM ATP
  IC50: 1480 nM
[4]; [11]
  IC50: 2.1 nM
[4]; [12]
  IC50: 4.5 nM
[5]; [13]
  IC50: 0.4 nM
[5]; [14]
  IC50: 1.3 nM

## CC1(CO)CCN(c2cc(Nc3ccnc(-c4cnn(S(=O)(=O)C5CC5)c4)n3)ncc2C#Cc2ncc(CN3CCOCC3)cn2)CC1 [Example 193, (1-(2-((2-(1-(Cyclopropylsulfonyl)-1H-pyrazol-4-yl)pyrimidin-4-yl)amino)-5-((5-(morpholinomethyl)pyrimidin-2-yl)ethynyl)pyridin-4-yl)-4-methylpiperidin-4-yl)methanol]
[1]; [6]
  IC50: 0.5 nM
[1]; [7]
  IC50: 0.6 nM
[2]; [8]
  IC50: 0.4 nM
[2]; [9]
  IC50: 0.7 nM
[3]; [10]
  IC50: 2.2 nM
[3]; IC50 WT (nM), 100 μM ATP
  IC50: 1270 nM
[4]; [11]
  IC50: 0.9 nM
[4]; [12]
  IC50: 6.6 nM
[5]; [13]
  IC50: 0.2 nM
[5]; [14]
  IC50: 0.5 nM

## O=S(=O)(C1CC1)n1cc(-c2nccc(Nc3cc(N[C@H]4CC[C@@H](O)CC4)c(C#Cc4ncc(CN5CCOCC5)cn4)cn3)n2)cn1 [Example 194, (1s,4s)-4-((2-((2-(1-(Cyclopropylsulfonyl)-1H-pyrazol-4-yl)pyrimidin-4-yl)amino)-5-((5-(morpholinomethyl)pyrimidin-2-yl)ethynyl)pyridin-4-yl)amino)cyclohexan-1-ol]
[1]; [6]
  IC50: 0.5 nM
[1]; [7]
  IC50: 0.5 nM
[2]; [8]
  IC50: 2.2 nM
[2]; [9]
  IC50: 3.3 nM
[3]; [10]
  IC50: 26.1 nM
[3]; IC50 WT (nM), 100 μM ATP
  IC50: > 10000 nM
[4]; [11]
  IC50: 3.4 nM
[4]; [12]
  IC50: 169 nM
[5]; [13]
  IC50: 0.2 nM
[5]; [14]
  IC50: 0.7 nM

## CC1(CO)CCN(c2cc(Nc3ccnc(-c4cnn(S(=O)(=O)C5CC5)c4)n3)ncc2C#CC2(O)CCOCC2)CC1 [Example 195, 4-((6-((2-(1-(cyclopropylsulfonyl)-1H-pyrazol-4-yl)pyrimidin-4-yl)amino)-4-(4-(hydroxymethyl)-4-methylpiperidin-1-yl)pyridin-3-yl)ethynyl)tetrahydro-2H-pyran-4-ol]
[1]; [6]
  IC50: 0.3 nM
[1]; [7]
  IC50: 0.4 nM
[2]; [8]
  IC50: 2.4 nM
[2]; [9]
  IC50: 2.7 nM
[3]; [10]
  IC50: 19.6 nM
[3]; IC50 WT (nM), 100 μM ATP
  IC50: 8540 nM
[4]; [11]
  IC50: 2.3 nM
[4]; [12]
  IC50: 14.8 nM
[5]; [13]
  IC50: 0.1 nM
[5]; [14]
  IC50: 0.4 nM

## O=S(=O)(C1CC1)n1cc(-c2nccc(Nc3cc(N[C@H]4CC[C@@H](O)CC4)c(C#CC4(O)CCOCC4)cn3)n2)cn1 [Example 196, 4-((6-((2-(1-(Cyclopropylsulfonyl)-1H-pyrazol-4-yl)pyrimidin-4-yl)amino)-4-(((1 s, 4s)-4-hydroxycyclohexyl)amino)pyridin-3-yl)ethynyl)tetrahydro-2H-pyran-4-ol]
[1]; [6]
  IC50: 0.7 nM
[1]; [7]
  IC50: 0.6 nM
[2]; [8]
  IC50: 6 nM
[2]; [9]
  IC50: 9.8 nM
[3]; [10]
  IC50: 68 nM
[3]; IC50 WT (nM), 100 μM ATP
  IC50: > 10000 nM
[4]; [11]
  IC50: 6.8 nM
[4]; [12]
  IC50: 50.6 nM
[5]; [13]
  IC50: 0.3 nM
[5]; [14]
  IC50: 1.1 nM

## CC1(CO)CCN(c2cc(Nc3ccnc(-c4cnn(S(=O)(=O)C5CC5)c4)n3)ncc2C#CC2CCOC2)CC1 (stereo not shown) [Example 197, (1-(2-((2-(1-(Cyclopropylsulfonyl)-1H-pyrazol-4-yl)pyrimidin-4-yl)amino)-5-((tetrahydrofuran-3-yl)ethynyl)pyridin-4-yl)-4-methylpiperidin-4-yl)methanol]
[1]; [6]
  IC50: 0.3 nM
[1]; [7]
  IC50: 0.3 nM
[2]; [8]
  IC50: 0.6 nM
[2]; [9]
  IC50: 0.8 nM
[3]; [10]
  IC50: 5.6 nM
[3]; IC50 WT (nM), 100 μM ATP
  IC50: 1560 nM
[4]; [11]
  IC50: 0.8 nM
[4]; [12]
  IC50: 8.9 nM
[5]; [13]
  IC50: 0.1 nM
[5]; [14]
  IC50: 0.3 nM

## O=S(=O)(C1CC1)n1cc(-c2nccc(Nc3cc(NC4CCC(O)CC4)c(C#CC4CCOC4)cn3)n2)cn1 (stereo not shown) [Example 198, (1s,4s)-4-((2-((2-(1-(Cyclopropylsulfonyl)-1H-pyrazol-4-yl)pyrimidin-4-yl)amino)-5-((tetrahydrofuran-3-yl)ethynyl)pyridin-4-yl)amino)cyclohexan-1-ol]
[1]; [6]
  IC50: 0.4 nM
[1]; [7]
  IC50: 0.5 nM
[2]; [8]
  IC50: 2.1 nM
[2]; [9]
  IC50: 3.6 nM
[3]; [10]
  IC50: 25.1 nM
[3]; IC50 WT (nM), 100 μM ATP
  IC50: 5980 nM
[4]; [11]
  IC50: 2.5 nM
[4]; [12]
  IC50: 50.8 nM
[5]; [13]
  IC50: 0.2 nM
[5]; [14]
  IC50: 0.6 nM

## CC(C)Nc1cc(Nc2ccnc(-c3cnn(S(=O)(=O)C4CC4)c3)n2)ncc1C#CCN1CCS(=O)(=O)CC1 [Example 201, 4-(3-(6-((2-(1-(Cyclopropylsulfonyl)-1H-pyrazol-4-yl)pyrimidin-4-yl)amino)-4-(isopropylamino)pyridin-3-yl)prop-2-yn-1-yl)thiomorpholine 1,1-dioxide]
[1]; [6]
  IC50: 1.7 nM
[2]; [8]
  IC50: 36.7 nM
[3]; [10]
  IC50: 292 nM
[4]; [11]
  IC50: 141 nM
[5]; [13]
  IC50: 1.2 nM

## CC(C)Nc1cc(Nc2ccnc(-c3cnn(S(=O)(=O)C4CC4)c3)n2)ncc1C#CCN1CCOCC1 [Example 202, N^2-(2-(1-(Cyclopropylsulfonyl)-1H-pyrazol-4-yl)pyrimidin-4-yl)-N^4-isopropyl-5-(3-morpholinoprop-1-yn-1-yl)pyridine-2,4-diamine]
[1]; [6]
  IC50: 2.2 nM
[2]; [8]
  IC50: 43.4 nM
[3]; [10]
  IC50: 312 nM
[4]; [11]
  IC50: 92.7 nM
[5]; [13]
  IC50: 1.6 nM

## CC(C)Nc1cc(Nc2ccnc(-c3cnn(S(=O)(=O)C4CC4)c3)n2)ncc1C#CCN1CCCC1 [Example 203, N^2-(2-(1-(Cyclopropylsulfonyl)-1H-pyrazol-4-yl)pyrimidin-4-yl)-N^4-isopropyl-5-(3-(pyrrolidin-1-yl)prop-1-yn-1-yl)pyridine-2,4-diamine]
[1]; [6]
  IC50: 2.2 nM
[2]; [8]
  IC50: 68.1 nM
[3]; [10]
  IC50: 437 nM
[4]; [11]
  IC50: 110 nM
[5]; [13]
  IC50: 1.4 nM

## CC(C)Nc1cc(Nc2ccnc(-c3cnn(S(=O)(=O)C4CC4)c3)n2)ncc1C#CCCCCNC(=O)N1CCOCC1 [Example 209, N-(6-(6-((2-(1-(Cyclopropylsulfonyl)-1H-pyrazol-4-yl)pyrimidin-4-yl)amino)-4-(isopropylamino)pyridin-3-yl)hex-5-yn-1-yl)morpholine-4-carboxamide]
[1]; [7]
  IC50: 2.6 nM
[2]; [9]
  IC50: 120 nM
[3]; IC50 WT (nM), 100 μM ATP
  IC50: > 10000 nM
[4]; [12]
  IC50: 112 nM
[5]; [14]
  IC50: 4.4 nM

## Cc1nc(C#Cc2cnc(Nc3ccnc(-c4cnn(S(=O)(=O)C5CC5)c4)n3)cc2N2CCC(O)CC2)cs1 [Example 211, 1-(2-((2-(1-(Cyclopropylsulfonyl)-1H-pyrazol-4-yl)pyrimidin-4-yl)amino)-5-((2-methylthiazol-4-yl)ethynyl)pyridin-4-yl)piperidin-4-ol]
[1]; [7]
  IC50: 1.4 nM
[2]; [9]
  IC50: 32.3 nM
[3]; IC50 WT (nM), 100 μM ATP
  IC50: > 10000 nM
[4]; [12]
  IC50: 66.2 nM
[5]; [14]
  IC50: 6.9 nM

## O=S(=O)(C1CC1)n1cc(-c2nccc(Nc3cc(N4CCC(O)CC4)c(C#Cc4csc(CF)n4)cn3)n2)cn1 [Example 212, 1-(2-((2-(1-(Cyclopropylsulfonyl)-1H-pyrazol-4-yl)pyrimidin-4-yl)amino)-5-((2-(fluoromethyl)thiazol-4-yl)ethynyl)pyridin-4-yl)piperidin-4-ol]
[1]; [7]
  IC50: 1.5 nM
[2]; [9]
  IC50: 44.8 nM
[3]; IC50 WT (nM), 100 μM ATP
  IC50: > 10000 nM
[4]; [12]
  IC50: 97.6 nM
[5]; [14]
  IC50: 8.9 nM

## Cn1cnc(C#Cc2cnc(Nc3ccnc(-c4cnn(S(=O)(=O)C5CC5)c4)n3)cc2N2CCC(O)CC2)c1 [Example 213, 1-(2-((2-(1-(Cyclopropylsulfonyl)-1H-pyrazol-4-yl)pyrimidin-4-yl)amino)-5-((1-methyl-1H-imidazol-4-yl)ethynyl)pyridin-4-yl)piperidin-4-ol]
[1]; [7]
  IC50: 0.7 nM
[2]; [9]
  IC50: 8.8 nM
[3]; IC50 WT (nM), 100 μM ATP
  IC50: > 10000 nM
[4]; [12]
  IC50: 37.5 nM
[5]; [14]
  IC50: 1.4 nM

## Cn1cnc(C#Cc2cnc(Nc3ccnc(-c4cnn(S(=O)(=O)C5CC5)c4)n3)cc2N2CCC(O)CC2)n1 [Example 214, 1-(2-((2-(1-(Cyclopropylsulfonyl)-1H-pyrazol-4-yl)pyrimidin-4-yl)amino)-5-((1-methyl-1H-1,2,4-triazol-3-yl)ethynyl)pyridin-4-yl)piperidin-4-ol]
[1]; [7]
  IC50: 1.4 nM
[2]; [9]
  IC50: 109 nM
[3]; IC50 WT (nM), 100 μM ATP
  IC50: > 10000 nM
[4]; [12]
  IC50: 274 nM
[5]; [14]
  IC50: 4 nM

## O=S(=O)(C1CC1)n1cc(-c2nccc(Nc3cc(N4CCC(O)CC4)c(C#Cc4ccc(N5CCOCC5)nc4)cn3)n2)cn1 [Example 215, 1-(2-((2-(1-(Cyclopropylsulfonyl)-1H-pyrazol-4-yl)pyrimidin-4-yl)amino)-5-((6-morpholinopyridin-3-yl)ethynyl)pyridin-4-yl)piperidin-4-ol]
[1]; [7]
  IC50: 2.9 nM
[2]; [9]
  IC50: 46.9 nM
[3]; IC50 WT (nM), 100 μM ATP
  IC50: > 10000 nM
[4]; [12]
  IC50: 213 nM
[5]; [14]
  IC50: 11.4 nM
